Marks after values point to notes of the source that are not given here.
Assays:
[1] = pH stability testing at 75° C. (HPLC); format: physicochemical; conditions: for Concentration of the ON.1210.Na determined by HPLC during the stability study: 75° C.
Procedure: (§1) The drug is dissolved in different pH buffers as outlined in Table 20. One hundred mL of each solution is prepared in a volumetric flask. Each solution is filtered through a 0.22 um filter. Approximately, four mL of the above solution is placed in 5 ml ampoules and sealed by a propane torch. The pH of the solution is determined at time zero and at each time interval. All the ampoules are placed in a 75° C. constant temperature oven. Any color changes or precipitation in the solution during the sample collection is visually observed. Concentration of the drug is determined at time zero and other time intervals by HPLC.
as §1, with “prepared in volumetric flask.” for “prepared in a volumetric flask.”, “filtered through 0.22 um” for “filtered through a 0.22 um”, “by HPLC. The pH and drug content of each sample are determined.” for “by HPLC.”
The data from the pH stability study is analyzed by plotting Log (conc.) versus time.
The rate constant for the degradation is determined using a linear regression at each individual pH.

[2] = Saturated solubility in different solvent systems; format: physicochemical

Structure (SMILES): O=C([O-])c1ccc(/C=C/S(=O)(=O)Cc2ccc(Cl)cc2)cc1.[Na+] [ON.1210.Na, (E)-4-Carboxystyryl-4-chlorobenzylsulfone, Sodium Salt]
- Concentration of the ON.1210.Na determined by HPLC during the stability study ([1]; pH 7.4 buffer, 5 days, pH of the solution 7.44): 484.009 µg/mL
- Concentration of the ON.1210.Na determined by HPLC during the stability study ([1]; pH 7.4 buffer, 10 days, pH of the solution 7.42): 473.2525 µg/mL
- Concentration of the ON.1210.Na determined by HPLC during the stability study ([1]; pH 7.4 buffer, 17 days, pH of the solution 7.41): 466.5611 µg/mL
- Concentration of the ON.1210.Na determined by HPLC during the stability study ([1]; pH 7.4 buffer, 28 days, pH of the solution 7.2): 434.5598 µg/mL
- Concentration of the ON.1210.Na determined by HPLC during the stability study ([1]; pH 7.4 buffer, 35 days, pH of the solution 7.34): 428.5503 µg/mL
- Concentration of the ON.1210.Na determined by HPLC during the stability study ([1]; pH 7.4 buffer, 42 days, pH of the solution 7.36): 416.3353 µg/mL
- Concentration of the ON.1210.Na determined by HPLC during the stability study ([1]; pH 7.4 buffer, 54 days, pH of the solution 7.31): 403.267 µg/mL
- Kobs, first order rate constant for the degradation ([1]; pH 8.0, 75° C.): 0.0064 day⁻¹
- Concentration of the ON.1210.Na determined by HPLC during the stability study ([1]; pH 8.0 buffer, 0 hours, pH of the solution 8.01): 494.8540 µg/mL
- Concentration of the ON.1210.Na determined by HPLC during the stability study ([1]; pH 8.0 buffer, 1 day, pH of the solution 8.08): 493.8002 µg/mL
- Concentration of the ON.1210.Na determined by HPLC during the stability study ([1]; pH 8.0 buffer, 3 days, pH of the solution 8.04): 485.8134 µg/mL
- Concentration of the ON.1210.Na determined by HPLC during the stability study ([1]; pH 8.0 buffer, 5 days, pH of the solution 7.98): 486.042 µg/mL
- Concentration of the ON.1210.Na determined by HPLC during the stability study ([1]; pH 8.0 buffer, 10 days, pH of the solution 7.98): 462.5487 µg/mL
- Concentration of the ON.1210.Na determined by HPLC during the stability study ([1]; pH 8.0 buffer, 17 days, pH of the solution 8.02): 441.454 µg/mL
- Concentration of the ON.1210.Na determined by HPLC during the stability study ([1]; pH 8.0 buffer, 28 days, pH of the solution 7.81): 398.9563 µg/mL
- Concentration of the ON.1210.Na determined by HPLC during the stability study ([1]; pH 8.0 buffer, 35 days, pH of the solution 7.33, new degradation product with retention time 4.52 min): 249.7589** μg/mL
- Concentration of the ON.1210.Na determined by HPLC during the stability study ([1]; pH 8.0 buffer, 42 days, pH of the solution 7.36): 378.4188 µg/mL
- Concentration of the ON.1210.Na determined by HPLC during the stability study ([1]; pH 8.0 buffer, 54 days, pH of the solution 7.9): 353.5676 µg/mL
- Kobs, first order rate constant for the degradation ([1]; pH 9.0, 75° C.): 0.0104 day⁻¹
- Concentration of the ON.1210.Na determined by HPLC during the stability study ([1]; pH 9.0 buffer, 0 hours, pH of the solution 9.02): 475.7458 µg/mL
- Concentration of the ON.1210.Na determined by HPLC during the stability study ([1]; pH 9.0 buffer, 1 day, pH of the solution 9.1): 463.3368 µg/mL
- Concentration of the ON.1210.Na determined by HPLC during the stability study ([1]; pH 9.0 buffer, 3 days, pH of the solution 9.12): 436.1314 µg/mL
- Concentration of the ON.1210.Na determined by HPLC during the stability study ([1]; pH 9.0 buffer, 5 days, pH of the solution 8.72): 422.51 µg/mL
- Concentration of the ON.1210.Na determined by HPLC during the stability study ([1]; pH 9.0 buffer, 10 days, pH of the solution 8.74): 379.1650 µg/mL
- Concentration of the ON.1210.Na determined by HPLC during the stability study ([1]; pH 9.0 buffer, 17 days, pH of the solution 8.75): 351.6448 µg/mL
- Concentration of the ON.1210.Na determined by HPLC during the stability study ([1]; pH 9.0 buffer, 28 days, pH of the solution 8.53): 304.3917 µg/mL
- Concentration of the ON.1210.Na determined by HPLC during the stability study ([1]; pH 9.0 buffer, 35 days, pH of the solution 8.46, two new degradation products with retention time of 4.52 and 3.6 minutes): 199.584*** μg/mL
- Concentration of the ON.1210.Na determined by HPLC during the stability study ([1]; pH 9.0 buffer, 42 days, pH of the solution 8.45): 300.1106 µg/mL
- Concentration of the ON.1210.Na determined by HPLC during the stability study ([1]; pH 9.0 buffer, 54 days, pH of the solution 8.47): 267.741 µg/mL
- Solubility ([2]; 0.25% Tween 80 in phosphate buffer, pH of solution 8.45): 9.5 mg/mL
- Solubility ([2]; 0.5% Tween 80 in phosphate buffer, pH of solution 8.41): 9.8 mg/mL
- Solubility ([2]; 1% Tween 80 in phosphate buffer, pH of solution 8.45): 8.9 mg/mL
- Solubility ([2]; 2% Tween 80 in phosphate buffer, pH of solution 8.39): 9.7 mg/mL
- Solubility ([2]; 2% tween 80 in water, pH of solution 8.78): 9 mg/mL
- Solubility ([2]; 10% cyclodextran, 24 hours of equilibration, pH of solution 8.14): 46 mg/mL
- Solubility ([2]; 10% cyclodextran, 48 hours of equilibration, pH of solution 8.41): 41 mg/mL
- Solubility ([2]; 50% PEG400:water, pH of solution 7.53): 40 mg/mL
- Solubility ([2]; 50:50 PEG400:ethanol, pH of solution 8.46): 37 mg/mL
- Solubility ([2]; PEG300 (IP10 g/kg), pH of solution 8.21): 52.04 mg/mL

From patent US20110028504A1, “Formulation of radioprotective alpha beta unsaturated aryl sulfones” (ONCONOVA THERAPEUTICS, INC., priority 2005, published 2011)
